Here are results for four compounds from USRE30241E, “Esters of 3-(hydroxy or hydroxymethyl)-4-hydroxyphenyl aminomethyl ketones” (Sterling Drug Inc., priority 1970, dated 1980).

The structures appear in SMILES notation. Counter-ions that a name gives are not always drawn. Like-named read-outs stand apart in the source and are kept apart here.

The test system of assay [1] is carbachol- or histamine-induced bronchoconstriction. Put plainly: Bronchodilator Test Method I, anesthetized dog, intraduodenal activity. The conditions noted are these: Canis lupus familiaris, read-out: Bronchodilation; for inhibition in vivo at 0.032 mg/kg: 32 mcg/kg (salt) intraduodenal; for inhibition in vivo at 0.128 mg/kg: 128 mcg/kg (salt) intraduodenal; for inhibition in vivo at 0.45 mg/kg: 450 mcg/kg (salt) intraduodenal. It counts as in vivo. How it is done: (§1) Male and female dogs weighing 9-18 kg. each were anesthetized with pentobarbital sodium (30 mg./kg. i.v.). Each animal, with thorax opened at the midsternum, was maintained under artificial ventilation using a constant volume pump (250 ml./stroke; 10 to 12 strokes per minute) attached to the tracheal cannula. The flow of air was controlled by a glass or plastic valve which closed and opened respectively on inflow and outflow of the air to and from the tracheal cannula. Bronchoconstriction and/or bronchodilatation were measured from changes in the basal airway pressure reflected by a transducer attached to the sidearm of the cannula relayed to a polygraph.
Control bronchoconstrictions were induced by intravenous injections of carbachol (choline chloride carbamate) in doses ranging from 4 to 6 micrograms per kilogram or histamine diphosphate in doses ranging from 35 to 45 micrograms per kilogram. In the majority of test animals, the above doses of constrictor agents produced a 100-200 percent increase in the normal airway pressure or amplitude.
Injections were repeated at 20-30 minutes.
In intraduodenal studies, in the dog prepared for bronchodilation measurements, the duodenal segment of the small intestine was made easily accessible through a small mid-line incision in the abdomen. The test solution was injected into the duodenum using a fine needle. Commencing 5 minutes after medication, the degree and duration of bronchodilation were tested by injecting a control dose of carbachol or histamine at intervals of 30-60 minutes until the recovery or near-recovery was apparent. In some dogs showing an early recovery, a reference drug was also tested in the same dog 1.5-2 hours after the first medicine.

The test system is the same in assay [2]. Put plainly: Bronchodilator Test Method I, anesthetized dog, intravenous activity. The format is in vivo. The conditions noted are these: Canis lupus familiaris, read-out: Bronchodilatation; for inhibition in vivo at 0.008 mg/kg: 8 mcg/kg i.v.; for inhibition in vivo at 0.032 mg/kg: 32 mcg/kg i.v.; for inhibition in vivo at 0.128 mg/kg: 128 mcg/kg i.v.; for inhibition in vivo at 0.075 mg/kg: 75 mcg/kg i.v.; for inhibition in vivo at […]: 150 mcg/kg i.v.; for inhibition in vivo at 0.3 mg/kg: 300 mcg/kg i.v.; for inhibition in vivo at 0.152 mg/kg: 152 mcg/kg i.v.; for inhibition in vivo at 0.304 mg/kg: 304 mcg/kg i.v. How it is done:
Bronchodilator activity was tested in anesthetized dogs (Test Method I) and in vitro on the perfused guinea pig lung (Test Method II), using the following pharmacological test procedures
as §1
Control bronchoconstrictions were induced by intravenous injections of carbachol (choline chloride carbamate) in doses ranging from 4 to 6 micrograms per kilogram or histamine diphosphate in doses ranging from 35 to 45 micrograms per kilogram.
Solutions of the test compounds were prepared in distilled water or in saline (for infusion). […] These solutions were then tested for bronchodilator activity in three ways, viz. (1) by mixing a graded dose of test compound with the constant does of carbachol or histamine in a syringe and injecting the mixture into the femoral vein of the dog, (2) by producing the bronchoconstriction first and injecting the test compound at the time of maximum constriction, and (3) by injecting the test compound first followed by carbachol or histamine in 1-10 minutes. Injections were repeated at 20-30 minutes. Bronchodilator values were obtained by measuring the areas under the response polygraph tracings (the first 5 munite period) of carbachol or histamine controls and of the experimentals using a planimeter. Decrease in the area thus measured was expressed as a percent bronchodilatation in reference to the area of control carbachol or histamine constriction. The mean bronchodilatations (the reductions in constrictions) were plotted against the doses administered and the mean effective dose (ED50) was estimated in micrograms/kilogram from the does-response curves. Blood pressure recording was taken from the femoral artery using an arterial transducer relayed to a polygraph.

For `CC(=O)OCc1cc(C(O)CNC(C)(C)C)ccc1OC(=O)C12CC3CC(CC(C3)C1)C2` (stereo not drawn) [Example 152, 3-(acetoxymethyl)-4-(1-adamantanecarbonyloxy)-alpha-(tert-butylaminomethyl)benzyl alcohol methanesulfonate], the inhibition in vivo at 0.032 mg/kg turned out to be 6% in assay [1] (5 min, 5 min); 6% in assay [1] (0.5 h, 30 min); 17% in assay [1] (1 h, 60 min); 48% in assay [1] (2 h, 120 min); 45% in assay [1] (3 h, 180 min); 45% in assay [1] (4 h, 240 min). The inhibition in vivo at 0.032 mg/kg in assay [1] (5 h, 300 min) came out at 21%; in assay [2] (5 min, 5 min), 77%; in assay [2] (0.5 h, 30 min), 78%; in assay [2] (1 h, 60 min) it was 75%; in assay [2] (2 h, 120 min) it was 70%; in assay [2] (3 h, 180 min), 63%. Besides, the inhibition in vivo at 0.032 mg/kg was found to be 52% in assay [2] (4 h, 240 min) and 45% in assay [2] (4.5 h, 270 min). The inhibition in vivo at 0.128 mg/kg in assay [1] (5 min, 5 min) stood at 6%; in assay [1] (0.5 h, 30 min), 43%; in assay [1] (1 h, 60 min), 59%; in assay [1] (2 h, 120 min) it was 51%; in assay [1] (3 h, 180 min), 65%; in assay [1] (4 h, 240 min), 59%. The inhibition in vivo at 0.128 mg/kg is 54% in assay [1] (5 h, 300 min); 97% in assay [2] (5 min, 5 min); 92% in assay [2] (0.5 h, 30 min); 93% in assay [2] (1 h, 60 min); 87% in assay [2] (2 h, 120 min); 89% in assay [2] (3 h, 180 min). For the same compound, the inhibition in vivo at 0.128 mg/kg in assay [2] (4 h, 240 min) turned out to be 88%; in assay [2] (4.5 h, 270 min) it was 82%. Moreover, the inhibition in vivo at 0.008 mg/kg in assay [2] (5 min, 5 min) is 44%; in assay [2] (0.5 h, 30 min), 39%; in assay [2] (1 h, 60 min), 50%; in assay [2] (2 h, 120 min), 33%; in assay [2] (3 h, 180 min) it was 39%; in assay [2] (4 h, 240 min), 39%. For the same compound, the inhibition in vivo at 0.008 mg/kg in assay [2] (4.5 h, 270 min) turned out to be 0%.

As to `CC(=O)OC(CNC(C)(C)C)c1ccc(OC(=O)c2ccc(C)cc2)c(OC(=O)c2ccc(C)cc2)c1` (stereo not drawn) [Example 134, 3,4-bis(p-toluyloxy)-alpha-(tert-butylaminomethyl)benzyl acetate], the inhibition in vivo at 0.075 mg/kg turned out to be 25% in assay [2] (5 min, 5 min); 21% in assay [2] (0.5 h, 30 min); 5% in assay [2] (1 h, 60 min); 0% in assay [2] (2 h, 120 min); 0% in assay [2] (3 h, 180 min). Also, the inhibition in vivo at […] in assay [2] (5 min, 5 min) was 54%; in assay [2] (0.5 h, 30 min), 58%; in assay [2] (1 h, 60 min) it was 52%; in assay [2] (2 h, 120 min), 35%; in assay [2] (3 h, 180 min), 20%; in assay [2] (4 h, 240 min), 0%. In addition, the inhibition in vivo at 0.3 mg/kg was 47% in assay [2] (5 min, 5 min) and 36% in assay [2] (4 h, 240 min).

For `Cc1ccc(C(=O)Oc2ccc(C(O)CN)cc2OC(=O)c2ccc(C)cc2)cc1` (stereo not drawn) [Example 127, 3,4-bis(p-toluyloxy)-alpha-(aminomethyl)benzyl alcohol methanesulfonate], the inhibition in vivo at 0.45 mg/kg in assay [1] (5 min, 5 min) stood at 16%; in assay [1] (10 min, 10 min), 16%; in assay [1] (1 h, 60 min), 0%; in assay [1] ([…], after 90 min) it was 0%.

Take `CCC(NC(C)C)C(O)c1ccc(OC(=O)c2ccc(C)cc2)c(OC(=O)c2ccc(C)cc2)c1` (stereo not drawn) [Example 132, 3,4-bis(p-toluyloxy)-alpha-[1-(isopropylamino)propyl]benzyl alcohol hydrochloride]: the inhibition in vivo at 0.152 mg/kg in assay [2] (5 min, 5 min) is 67%; in assay [2] (0.5 h, 30 min) it was 75%; in assay [2] (1 h, 60 min), 71%; in assay [2] (2 h, 120 min), 52%; in assay [2] (3 h, 180 min), 43%; in assay [2] (4 h, 240 min) it was 0%. Moreover, the inhibition in vivo at 0.152 mg/kg in assay [2] (5 h, 300 min) was found to be 0%. In addition, the inhibition in vivo at 0.304 mg/kg in assay [2] (5 min, 5 min) was found to be 100%; in assay [2] (0.5 h, 30 min), 67%; in assay [2] (5 h, 300 min), 0%.
